Test system: spores of Bacillus subtilis
Assay: Sterilization effect on Bacillus subtilis spores by total viable cell count
Conditions: direct mechanism (surfactant ingredients) or indirect mechanism (germination inducers), ingredients acting jointly within the extract
Description: Bacillus subtilis spores were selected for use in an antimicrobial test against a spore-forming microorganism.
Vegetative cells of Bacillus subtilis ATCC 6633 were sub-cultured, streaked onto tryptic soy agar (TSA) plates, and incubated at 30° C. for 48 hrs. The plates were then stored at a low temperature of 5° C. and used as a seed culture. After the seed culture was identified to have no morphological abnormality by microscopic observation, it was spread onto a nutrient agar plate containing magnesium sulfate (NAMS), and incubated at 30° C. for 48 hrs. After 10^10-10^12 spores had emerged, the plate was washed with physiological saline, and the spores were scratched with a platinum loop and transferred into a sterile tube. The spores were then centrifuged at 4° C. at 12,000 rpm for 2 min, and this centrifugation was carried out once more. After being microscopically observed to ensure the state of the spores, the pellet was subjected to on-off ultrasonication for 5 min to destroy only the vegetative cells, and was then centrifuged again. Spore formation was further confirmed by a Dorner method, and the spores were stored at −20° C. until use for an antimicrobial test.
The antimicrobial plant materials were extracted with 75% ethanol, concentrated in a vacuum, and freeze-dried to provide aqueous or powdered antimicrobial materials. […] An antimicrobial test against spores of Bacillus subtilis, the representative spore-forming microorganism, was performed by optical density analysis at 600 nm and by counting of the total number of viable cells grown on a nutrient agar plate.
Optical density analysis is a method of indirectly analyzing the degree of growth of vegetative cells and spores by measuring OD values at 600 nm for vegetative cells and spores cultured in tryptic soy broth (TSB) at 37° C. for 18 hrs. The plant materials were primarily screened for candidates considered effective in sterilization by optical density analysis. Then, the candidates were further assessed for their antimicrobial effects by viable cell count. In detail, a spore suspension was mixed with physiological saline and a natural antimicrobial material (1% final concentration). The mixture was agitated at 30° C. for 3 hrs, and was then centrifuged at 12,000 rpm. After the supernatant, considered to contain the added antimicrobial material, was discarded, the pellet remaining in an Ependorf tube was covered with distilled water and centrifuged again to eliminate residual antimicrobial material. This washing step was repeated three times to obtain only spores treated with a natural antimicrobial material. This was done to evaluate the sterilization effects of the natural antimicrobial materials on pure spore samples.

Row | Compound | sterilization effect attributed to ingredients of the extract
1 | C[C@H](N)C(=O)O [alanine] | about 10^2
2 | CC(=O)OC1CC2CCC1(C)C2(C)C (centres unmarked) [bornyl acetate] | about 10^1
3 | CC(=O)OC/C=C(\C)CCC=C(C)C [geranyl acetate] | about 10^1
4 | OC[C@@H](O)[C@@H](O)[C@H](O)[C@H](O)CO [mannitol] | about 10^2
5 | OC[C@@H](O)[C@H](O)[C@@H](O)CO [xylitol] | about 10^2
